Assays:
[1] = tested on: HPNE-KRAS^G12D cells, HEKT/tH-KRAS^G12V cells, conventional PDAC lines, and PDCLs; assay: Anchorage independent soft agar growth assay, human KRAS-mutant lines; assay type: cell-based
Description: Cells were seeded at 5000-15000 cells in 0.3% noble agar-DMEM suspension per well, in triplicate, in 24 well plate. For drug treatment, compound was added to cell suspension at 1× concentration. Seeded cells were fed with fresh 0.6% agar-DMEM mix once every 7-12 days. […] After 3-6 weeks, colonies were counted under microscope and imaged. Colony count was normalized to control and graphed in GraphPad Prism v7/8.

[2] = tested on: p-FAK, p-ERK, total FAK, and FoxM1; assay: Reverse-phase protein array (RPPA) on HPNE-KRAS^G12D cells overexpressing IRAK4; assay type: cell-based, human
Description: All lysates were prepared according to sample preparation guidelines provided by MD Anderson Cancer Center (MDACC). HPNE-KRAS^G12D were infected with retroviral particles containing AU1-tagged IRAK4 WT or vector control in presence of 8 μg mL-1 polybrene, selected with blasticidin (10 μg mL-1) and RPPA was performed. For drug treatment, IRAK4 overexpressing cells were treated with AS2444697 2 μM or vehicle (DMSO) for 24 hours. For evaluation of TPL2 WT and E188K, 293T cells were transfected in duplicates with Vector (pbabe-puro), TPL2 WT or TPL2 E188K along with equal amount of polyethylenimine. Cells were harvested 48 hrs post-transfection and lysates were prepared and sent for RPPA. For both RPPA experiments, lysates were quantified by Bradford assay (Thermo Scientific), equalized for concentration, and denatured and reduced by adding 4×SDS sample buffer (without bromophenol blue) and boiling for 5 minutes.

p-MEK, p-ERK, and p-RSK = assay: Immunoblots of MAPK pathway markers in human cell lines; assay type: cell-based
Description: (§1) Standard immunoblotting procedure was followed. Cells were washed twice with ice-cold 1×PBS and lysed with ice-cold triton-X lysis buffer (25 mM Tris, pH 7.4, 150 mM NaCl, 5 mM EDTA, 1% Triton-X) containing 1× protease (10 μg mL-1 leupeptin, 700 ng mL-1 pepstatin, 170 ng mL-1 aprotinin, 1 mM PMSF) and phosphatase (10 mM NaF, 1 mM Na3VO4, 1 mM Na4P2O^7, 5 mM Na b-glycerophosphate) inhibitors. Lysates were quantified by Bradford assay (Thermo Scientific), normalized for concentration, and reduced and denatured with 6×SDS sample buffer followed by boiling for 5 minutes. 20-40 μg of protein per sample was resolved by SDS-PAGE, blotted on PVDF membrane and probed with primary antibodies (Cell Signaling Technologies: p-ERK1/2 (#4370), p-MEK1/2 (#9154), ERK1/2 (#4695), MEK1/2 (#8727), p-p105 (#4806), NFS2KB1 p105/p50 (#3035), p-IRAK4 (#11927), IRAK4 (#4363), ubiquitin (#43124), anti-HA (#3724), p-p90RSK (#11989), RSK1/2/3 (#9355), p-TPL2 (#4491), PARP (#9532), p-B-RAF S445 (#2696), BRAF (#9433S). Santa Cruz Biotechnology: GAPDH (#sc-32233), p-p65 S536 (#sc101752). Thermo Fisher Scientific: p-55 TPL2 (#PA5-36635). EMD Millipore: IRAK4 (#07-418). R&D systems: TPL2/MAP3K8 (#MAB4586). Novus Biologicals: anti-AU1 (#NB600-453). Abcam: p-p65 S276 (#ab194726)). Membranes were incubated with appropriate HRP-conjugated secondary antibodies (anti-mouse or anti-rabbit, (1:5000 dilution), Jackson Laboratory) and imaged using chemiluminescent substrate. Additional steps for immunoprecipitation include incubation of soluble fraction lysate with anti-HA magnetic beads (Thermo Scientific cat #88837) overnight at 4° C., washing, and elution using 1×SDS sample buffer and boiling as mentioned in manufacturer's protocol.

MAPK activity = assay: Immunoblots of MAPK activity in murine PDAC lines KP2 and KI; assay type: cell-based; details: 24 hours, serum-free
Description: as §1, with “S536” left out, “S276” left out, “Membranes were incubated with appropriate HRP-conjugated secondary antibodies (anti-mouse or anti-rabbit, (1:5000 dilution), Jackson Laboratory) and imaged using chemiluminescent substrate. Additional steps for immunoprecipitation include incubation of soluble fraction lysate with anti-HA magnetic beads (Thermo Scientific cat #88837) overnight at 4° C., washing, and elution using 1×SDS sample buffer and boiling as mentioned in manufacturer's protocol.” left out

KRAS-mutant PDAC lines = assay: Drug response and viability assay (AlamarBlue), PDAC lines; assay type: cell-based, human; details: various KRAS-mutant PDAC lines; 5 and 7 days
Description: Cells were seeded at 1500-2500 cells per well in triplicates, in 96 well format. Next day, appropriate inhibitor was added in serial dilution from 1.00×102 μM or indicated single doses. Vehicle (DMSO) was added to match volume of inhibitor used for highest concentration. […] Fluorescence at 585 nm (excitation 555 nm) was measured by SpectraMax i3 Microplate Reader. Raw values were normalized to vehicle, analyzed and graphed using GraphPad Prism v7/8 software.

MAPK activity (immunoblot) (MAPK activity): dose-dependently suppressed
Structure (SMILES): CC[C@@H]1[C@H](F)C(=O)N[C@@H]1COc1nccc2cc(C(N)=O)c(OC)cc12 [PF06650833, 1-(((2S,3S,4S)-3-ethyl-4-fluoro-5-oxopyrrolidin-2-yl)methoxy)-7-methoxyisoquinoline-6-carboxamide]
AI growth ([1]; HPNE-KRAS^G12D cells): crippled the AI growth | AI growth enhanced by IRAK4 overexpression ([1]; HPNE-KRAS^G12D cells ectopically expressing IRAK4): reversed the effect of IRAK4 overexpression | MAPK target proteins (RPPA) [2]: suppressed | IRAK4-induced increase in p-FAK, p-ERK, total FAK, and FoxM1 (RPPA) ([2]; 24 hours): reversed | p-MEK and p-ERK (p-MEK, p-ERK, and p-RSK; 293T cells transfected with oncogenic BRAF^V600E, 24 hours): neither TPL2i nor IRAK4i suppressed | p-MEK and p-ERK / MAPK activity (p-MEK, p-ERK, and p-RSK; BxPc-3 PDAC line (BRAF mutation, WT KRAS)): neither TPL2i nor IRAK4i suppressed | KRAS mutant-upregulated p-MEK, p-ERK, and p-RSK levels (p-MEK, p-ERK, and p-RSK; HPNE-KRAS^G12D and 293T-KRAS^G12V, 24 hours, serum-free): dose-dependently blocked | p-MEK and p-ERK levels enhanced by ectopic TPL2 (p-MEK, p-ERK, and p-RSK; Pa01C and HPAC cells overexpressing TPL2, serum-free): blocked | MAPK activity (immunoblot) (p-MEK, p-ERK, and p-RSK; Pa01C, Pa02C, Pa03C and HPAC, 16 hours): dose-dependently suppressed | viability (KRAS-mutant PDAC lines): dose-dependently reduced

From patent US12173039B1, “TPL2 inhibiting agents, uses thereof, and detection of TPL2” (Washington University, priority 2021, dated 2024)
